“And” between values parts separate entries of the source, which are not always exact repeats. Equal values may be shown once. Read-outs that look alike come from different tables or passages of the source. Where no end group is shown, it is not given here.

The subject of one series is mast cells. The series can be described thus: Inhibition of mast cells by quercetin. Type of series: cell-based. The conditions noted are these: Mast cell.
For a further series, the system named is Male BALB/6 mice. The series can be described thus: Brain blood vessel leakage by Evans blue extravasation. Type of series: in vivo.
Series [1] relates to human cultured LAD2 cells. Nature of the series: Release of mitochondrial DNA from LAD2 mast cells (real time PCR). Type of series: cell-based. As to conditions: 5 min pretreatment with luteolin; neurotensin stimulation. For orientation: Quantitative PCR measures a nucleic acid by following its amplification.
Source text: Total DNA was extracted from supernatant fluids of cultured LAD2 cells using Qiagen DNA Micro extraction kit (Qiagen, Calif.). Mitochondrial specific DNA for Cytochrome B (Mt-CytB) and 7S (Mt-7S) was detected and quantified by Real time PCR using Taqman assay (Mt-7S: Hs02596861_s1; Mt-CYB: Hs02596867_s1; GAPDH: Hu, VIC, TAMRA, Applied Biosystems, Calif.). GAPDH DNA was used to exclude any genomic “contamination.”
The subject of series [2] is LAD2 human mast cells. The series can be described thus: cells. Type of series: cell-based. As to conditions: for inhibition at 100 µM: Homo sapiens, LAD2, luteolin 0.1 mM, 10 min pretreatment; for VEGF release / SP-induced VEGF release / HgCl2-induced VEGF release: 24 hours. The protocol:
(§1) LAD2 human mast cells were cultured in serum-free media (StemPro-34; GIBCO, Grand Island, N.Y.) supplemented with 2 mM L-glutamine, 100 IU/ml penicillin, 50 μg/ml streptomycin, and 100 ng/ml recombinant human Stem Cell Factor (rhSCF, obtained from Amgen, Inc., Thousand Oaks, Calif.). For optimal cell growth, LAD2 cell density was maintained between 0.5×106 and 1×10^6 cells/ml. Cell viability was assessed at 1 and 24 hr using trypan blue (0.3%) exclusion.
LAD2 cells were washed with DPBS and suspended in complete culture medium. LAD2 cells (2×10^5 cells/well/200 μl) were plated in 96 well flat bottom Falcon cell culture plates (Becton Dickinson, Franklin Lakes, N.J.) and were pre-incubated for 15 min at 37° C. in 5% CO2 atmosphere. The cells were then incubated with either SP (2 μM), HgCl2 (10 μM), or thimerosal (1, 10 μM) for 24 hours at 37° C. Control cells were treated with equal volume of only culture medium. For the inhibition experiments, thimerosal or methyl thiosalicylate were added together with the triggers, while luteolin was added 10 min before the triggers. After the reaction time, plates were centrifuged and the supernatant was gently collected from the wells and stored at −20° C. until VEGF was measured by Enzyme-Linked Immunosorbent Assay (ELISA) using a commercial kit (R&D Systems, Minneapolis, Minn.). The minimum detectable level of VEGF was 5 pg/ml.

Series [3] concerns LAD2 human mast cells. As to conditions: thimerosal 10 μM, 24 hours, trypan blue exclusion. The procedure: as §1
Setting [4] is: substance 10 μM added together with SP (2 μM).

Procedure for Male BALB/6 mice: Male BALB/6 mice (6 weeks old, Jackson Laboratories, Bar Harbor, Me.) were injected in their tail vein with 0.2 ml of Evans blue (0.4%). Binding of Evans blue to the albumin found in the blood prevents Evans blue from escaping the circulation and constitutes a good biomarker from extravasation in brain parenchyma.
Mice were anesthetized with a single intraperitoneal injection of ketamine/xylazine (10 mg/kg and 80 mg/kg body weight, each), an intracardiac catheter was inserted in the left ventricle, blood was withdrawn, and 10 ml normal saline was administered intracardially to wash any Evans blue from the systemic circulation. The mice were then decapitated and the whole brain was removed. For brain extravasated Evans blue measurements, the brains were first weighed and the Evans blue was then extracted in 1 ml of N,N-dimethylformamide overnight at 55° C. and the optical density was measured at 620 nm using a PerkinElmer Luminescence Spectrophotometer (Perkin Elmer, Norwalk, Conn.). EB concentration was calculated using a standard curve and values were normalized to the tissue weight and expressed as arbitrary units/mg of tissue. Five animals per group were estimated to be sufficient for significant differences given the variability (<50%) observed. […] Values were then compared using the non-parametric Mann-Whitney U test. Significance is denoted by p<0.05.

In turn, `O=c1c(O)c(-c2ccc(O)c(O)c2)oc2cc(O)cc(O)c12` [Quercetin] showed an inhibition at 10 µM in the series with mast cells of 80%.
Consider `O=c1cc(-c2ccc(O)c(O)c2)oc2cc(O)cc(O)c12` [luteolin, 5,7,3′,4′-tetrahydroxyflavone], for which the “inhibition of NT-induced brain blood vessel leakage” value in the series on Male BALB/6 mice (pretreatment with luteolin 40 mg/kg body weight mixed in olive kernel extract, NT 500 nmol/kg ip) is “completely inhibited”. Also, the “inhibition of brain blood vessel leakage induced by IL-33 and NT” value with Male BALB/6 mice (pretreatment with the same amount of luteolin (40 mg/kg), IL-33 1 microg/mouse plus NT) is recorded as 50%. Moreover, the “inhibition of release of extracellular mt components from mast cells” value in series [1] was “can be inhibited”. In addition, the inhibition at 100 µM was determined as 100% with LAD2 human mast cells [2] (HgCl2 10 μM, read-out: inhibition of HgCl2-stimulated VEGF release) and 100% in the series with LAD2 human mast cells [2] (thimerosal 10 μM, read-out: inhibition of thimerosal-stimulated VEGF release).
“Substance P (RPKPQQFFGLM-NH2; ends and bridges not checked; UniProt P20366 58-68, looked up) [SP, neuropeptide, non-allergic mast cell trigger]”: the VEGF release in the series with LAD2 human mast cells [2] (SP 2 μM alone) is 445±16 pg/106 cells and 413.72±18 pg/106 cells.
Take `COC(=O)c1ccccc1S` [Methyl thiosalicylate, methyl thiosalicylate]: the “SP-induced VEGF release” value with LAD2 human mast cells [2] (substance 1 μM added together with SP (2 μM)) amounted to 281.63±24 pg/106 cells; in the series on LAD2 human mast cells [2] (setting [4]), 185.85±23 pg/106 cells. Also, the “HgCl2-induced VEGF release” value in the series with LAD2 human mast cells [2] (substance 1 μM added with HgCl2 (10 μM)) is listed as 258±29 pg/106 cells; in the series on LAD2 human mast cells [2] (substance 10 μM added with HgCl2 (10 μM)), 249.5±24 pg/106 cells.
`[Cl][Hg][Cl]` [HgCl2, Mercury chloride] returned a VEGF release with LAD2 human mast cells [2] (10 μM, no other trigger) of 488±76 pg/106 cells. Moreover, the “SP-induced VEGF release” value with LAD2 human mast cells [2] (setting [4]) was 553±63 pg/106 cells.
Consider `C[CH2][Hg][S]c1ccccc1C(=O)[O-].[Na+]` [thimerosal], for which the VEGF release is reported as 326±12 pg/106 cells in the series with LAD2 human mast cells [2] (1 μM, no other trigger) and 335±12 pg/106 cells with LAD2 human mast cells [2] (10 μM, no other trigger). In addition, the “SP-induced VEGF release” value in the series with LAD2 human mast cells [2] (setting [4]) was found to be 274.5±35 pg/106 cells. In addition, the decrease of viability entry with LAD2 human mast cells [3] is “less than 10%”.

B1: IL-33: interleukin-33, cytokine injected intraperitoneally (protein, UniProt O95760 1-270, looked up)
Interleukin-33: MKPKMKYSTNKISTAKWKNTASKALCFKLGKSQQKAKEVCPMYFMKLRSGLMIKKEACYFRRETTKRPSLKTGRKHKRHLVLAACQQQSTVECFAFGISGVQKYTRALHDSSITGISPITEYLASLSTYNDQSITFALEDESYEIYVEDLKKDEKKDKVLLSYYESQHPSNESGDGVDGKMLMVTLSPTKDFWLHANNKEHSVELHKCEKPLPDQAFFVLHNMHSNCVSFECKTDPGVFIGVKDNHLALIKVDSSENLCTENILFKLSET
As to B1, the brain leakage entry in the series with Male BALB/6 mice (IL-33 1 microg/mouse, alone or with NT, Evans blue extravasation) is on record as “no effect”.

Usually inhibition stands for the drop in the measured response relative to a control, in per cent.
